{"source": "paper PMC6115017", "about": "“High-content imaging assay to evaluate Toxoplasma gondii infection and proliferation: A multiparametric assay to screen new compounds” (PLoS ONE, 2018)", "key": {"[1]": {"test_system": "T. gondii proliferation (RH-YFP2 parasites in HFF)", "assay": "High Content Imaging (HCI) assay of T. gondii proliferation in HFF", "conditions": "for inhibition at 10 µM / IC50 / inhibition at 20 µM: Toxoplasma gondii; for SI selectivity index: CV50/IC50: CV50 (HFF)/IC50 (T. gondii); for Parasite proliferation inhibition (PPI): tested at 10 μM, HFF infected with T. gondii, normalised to DMSO and 20 μM pyrimethamine", "quoted_text": "The parasites were collected just after host cell lysis, centrifuged at 800 g for 5 min, suspended in D10 medium, and counted.\nA pyrimethamine (Sigma-Aldrich) stock solution was prepared at 10 mM in DMSO and was used at the final concentration of at 20 μM as a positive control for anti-Toxoplasma activity. Forty-six molecules were tested to determine their anti-Toxoplasma activity. Each molecule was prepared as a 10 mM stock solution in DMSO and tested at 10 μM. The hits were then further tested at the dilutions 0.01 to 100 μM.\n(§1) Cells were seeded at a density of 1.10^4 cells per well into 96-well plates, and allowed to grow for 48 h at 37°C and 5% CO2 to obtain sub-confluent HFF monolayers. Cells were then infected with 4.10^4 parasites per well. The plates were centrifuged for 1 min at 200 g and placed at 37°C, 5% CO2, for 2 h. After 3 washes in PBS, infected cells were incubated at 37°C, 5% CO2, for 30 hours with 200 μL of DMEM complete medium alone or supplemented with anti-Toxoplasma molecules, i.e. the reference drug pyrimethamine, or the tested molecules. These tested drugs were incubated at 10 μM in screening hit assays.\nImaging of 96-well plates was performed using a high content imaging system (Olympus ScanR). […] Twenty fields per well were imaged.\nThe acquired images were analyzed using the ScanR analysis software. This analysis aimed to identify the parasitophorous vacuoles (V), the parasites’ nuclei (P) and host cells’ nuclei (C).\nA fixed threshold was set up (Fig 1C) and a watershed algorithm was applied to split apart two vacuoles that associated with one another (Fig 1C, white arrow). A binary mask was obtained (Fig 1D) and objects on the image border were excluded. Segmentation of the parasites’ nuclei (Fig 1E–1G, arrowhead) was performed with the Hoechst fluorescence pixels (Fig 1E). In order to properly separate parasites’ nuclei one from another, an important rolling ball background subtraction filter was applied (5 pixels). Both the brightness and the contrast of filtered images were adjusted manually. Parasites were selected with an edge segmentation algorithm with a minimum object size of 10 pixels and a maximum object size of 30 pixels (Fig 1F). The obtained binary image allowed a clear detection of the parasites (Fig 1G).\nThe vacuole mask was merged with that of the parasites to identify parasites inside their parasitophorous vacuole and to exclude extracellular parasites or host cell nuclei (Fig 1H)."}, "[2]": {"test_system": "Human foreskin fibroblasts (HFF) host cells", "assay": "Host cell viability in the HCI assay (host cell nuclei count)", "conditions": "0.037 to 81 μM, 30 h", "quoted_text": "as §1\n• the T. gondii infection rate (V/C), calculated as the ratio between the number of parasitophorous vacuoles per well (V) divided by the number of host cells per well (C); • the T. gondii proliferation index (P/V), calculated as the ratio between the number of parasites per well (P) divided by the number of parasitophorous vacuoles per well; • the intra-vacuolar distribution of parasites (percentage of parasitophorous vacuoles containing either 1, 2, 4, or 8 parasites); • the parasite proliferation inhibition (PPI), calculated with the following formula: PPI=(1−((P/V[mol]−P/V[Pyr])/(P/V[DMSO]−P/V[Pyr])))x100 where P/V[Pyr] was the average proliferation rate of Toxoplasma in the presence of 20 μM pyrimethamine, P/V[DMSO], the average proliferation rate of Toxoplasma in the presence of DMSO only and P/V[mol], the average proliferation rate of Toxoplasma in the presence of the tested molecule; • the cell viability (CV): (C [mol] / C[DMSO])x100, where C[mol] was the number of host cell nuclei per well containing the tested molecule and C[DMSO], the number of host cell nuclei per well containing the DMSO control.\nA selectivity index activity (SI) was calculated as SI = CV50/IC50."}, "RH-YFP2 parasites in HFF": {"test_system": "RH-YFP2 parasites in HFF", "assay": "[3H]-uracil incorporation assay of T. gondii proliferation", "assay_type": "cell-based", "conditions": "Toxoplasma gondii; 20 μM pyrimethamine, 30 h in HFF; 100% proliferation = without pyrimethamine; 3 experiments; read-out: inhibition of parasite proliferation as determined by [3H]-uracil incorporation assay", "description": "The intracellular growth of RH-YFP2 parasites in HFF was monitored by selective incorporation of [^3H]-uracil, as previously described. […] After several washes to eliminate extracellular parasites, infected cells were cultured for 30 h with […] of [^3H]-uracil per well. Monolayers were washed 3 times in phosphate buffered saline (PBS), disrupted with 500 μL of lysis/scintillation solution (Optiphase Supermix, Perkin Elmer, France) and their radioactivity was measured by liquid scintillation counting using a Wallac MicroBeta TriLux (Perkin Elmer) calibrated for [^3H]-uracil. Two experimental replicates were performed in each of the 3 separate experiments."}, "[3]": {"test_system": "Toxoplasma gondii parasites in HFF", "assay": "Manual microscopic counting of T. gondii proliferation", "conditions": "30 h, read-out: inhibition of parasite proliferation as determined by manual microscopic observations", "quoted_text": "as §1\nParasitophorous vacuoles, parasites and host cells were manually counted on the set of images provided by the Olympus IX81 microscope. Three different experiments were performed.\nAfter 30 h of parasite culture in HFF, the total numbers of parasitophorous vacuoles and parasites were counted in wells with or without 20 μM pyrimethamine from 3 different experiments. The 100% proliferation corresponds to the number of parasites per well without pyrimethamine."}, "[4]": {"conditions": "30 h, read-out: Parasite proliferation inhibition (PPI)"}, "[5]": {"conditions": "30 h, read-out: IC50: concentration to inhibit 50% of T. gondii proliferation"}}, "note": "Like-named read-outs stand apart in the source and are kept apart here."}
{"compound": "O=C1/C(=C/c2ccc(Br)cc2)Oc2cc(O)cc(O)c21", "note": "[AU7]", "values": [{"measurement": "inhibition at 10 µM", "setting": "[1]; [4]", "value": 0, "unit": "%"}]}
{"compound": "COc1cccc(OC)c1/C=C/C(=O)c1c(OC)cccc1OC", "note": "[CH1]", "values": [{"measurement": "inhibition at 10 µM", "setting": "[1]; [4]", "value": 0, "unit": "%"}]}
{"compound": "COc1cccc(OC)c1/C=C/C(=O)c1ccccc1", "note": "[CH4]", "values": [{"measurement": "inhibition at 10 µM", "setting": "[1]; [4]", "value": 29, "unit": "%"}]}
{"compound": "COc1ccc(C(=O)/C=C/c2ccc(OC)c(OC)c2)c(O)c1", "note": "[CH5]", "values": [{"measurement": "inhibition at 10 µM", "setting": "[1]; [4]", "value": 3, "unit": "%"}]}
{"compound": "COc1ccc(C(=O)/C=C/c2cc(OC)c(OC)c(OC)c2)c(O)c1", "note": "[CH9]", "values": [{"measurement": "CV50: concentration to inhibit the viability of 50% of host cells", "setting": "[2]", "value": ">81", "unit": "µM"}, {"measurement": "SI selectivity index: CV50/IC50", "setting": "[1]", "value": ">12.3"}, {"measurement": "IC50", "setting": "[1]; [5]", "value": "6600 ± 1500", "unit": "nM"}, {"measurement": "inhibition at 10 µM", "setting": "[1]; [4]", "value": 93, "unit": "%"}, {"measurement": "Parasite proliferation inhibition (PPI)", "setting": "[1]; 30 h", "value": "high proliferation inhibition activity"}]}
{"compound": "COc1cc(/C=C/C(=O)c2ccc(OC)cc2O)cc(OC)c1", "note": "[CH12]", "values": [{"measurement": "inhibition at 10 µM", "setting": "[1]; [4]", "value": 73, "unit": "%"}]}
{"compound": "COc1ccc(-c2nnc(-c3ccccc3OC)o2)cc1", "note": "[DO3]", "values": [{"measurement": "CV50: concentration to inhibit the viability of 50% of host cells", "setting": "[2]", "value": ">81", "unit": "µM"}, {"measurement": "SI selectivity index: CV50/IC50", "setting": "[1]", "value": ">3"}, {"measurement": "IC50", "setting": "[1]; [5]", "value": "27700 ± 6200", "unit": "nM"}, {"measurement": "inhibition at 10 µM", "setting": "[1]; [4]", "value": 81, "unit": "%"}, {"measurement": "Parasite proliferation inhibition (PPI)", "setting": "[1]; 30 h", "value": "high proliferation inhibition activity"}]}
{"compound": "COc1ccc(-c2nnc(-c3ccc(OC)cc3)o2)cc1", "note": "[DO4]", "values": [{"measurement": "inhibition at 10 µM", "setting": "[1]; [4]", "value": 0, "unit": "%"}]}
{"compound": "COc1ccccc1-c1nnc(-c2ccccc2)o1", "note": "[DO6]", "values": [{"measurement": "inhibition at 10 µM", "setting": "[1]; [4]", "value": 0, "unit": "%"}]}
{"compound": "COc1ccc(-c2nnc(-c3ccccc3)o2)c(OC)c1", "note": "[DO8]", "values": [{"measurement": "inhibition at 10 µM", "setting": "[1]; [4]", "value": 0, "unit": "%"}]}
{"compound": "c1ccc(-c2nnc(-c3ccccc3)o2)cc1", "note": "[DO9]", "values": [{"measurement": "inhibition at 10 µM", "setting": "[1]; [4]", "value": 0, "unit": "%"}]}
{"compound": "Oc1ccc(-c2nnc(-c3ccccc3)o2)cc1", "note": "[DO10]", "values": [{"measurement": "inhibition at 10 µM", "setting": "[1]; [4]", "value": 0, "unit": "%"}]}
{"compound": "Oc1ccc(-c2nnc(-c3ccccc3)o2)c(O)c1", "note": "[DO11]", "values": [{"measurement": "inhibition at 10 µM", "setting": "[1]; [4]", "value": 0, "unit": "%"}]}
{"compound": "Oc1ccccc1-c1nnc(-c2ccccc2)o1", "note": "[DO12]", "values": [{"measurement": "inhibition at 10 µM", "setting": "[1]; [4]", "value": 5, "unit": "%"}]}
{"compound": "Oc1ccc(-c2nnc(-c3ccc(O)cc3O)o2)cc1", "note": "[DO13]", "values": [{"measurement": "inhibition at 10 µM", "setting": "[1]; [4]", "value": 0, "unit": "%"}]}
{"compound": "Oc1ccc(-c2nnc(-c3ccc(O)cc3)o2)cc1", "note": "[DO14]", "values": [{"measurement": "inhibition at 10 µM", "setting": "[1]; [4]", "value": 0, "unit": "%"}]}
{"compound": "CCc1nc(N)nc(N)c1-c1ccc(Cl)cc1", "note": "[pyrimethamine, reference compound]", "values": [{"measurement": "inhibition at 20 µM", "setting": "RH-YFP2 parasites in HFF", "value": 43.2, "unit": "%"}, {"measurement": "inhibition at 20 µM", "setting": "[3]", "value": 25, "unit": "%"}, {"measurement": "CV50: concentration to inhibit the viability of 50% of host cells", "setting": "[2]", "value": ">81", "unit": "µM"}, {"measurement": "SI selectivity index: CV50/IC50", "setting": "[1]", "value": ">202"}, {"measurement": "IC50", "setting": "[1]; 24 h, read-out: IC50 of pyrimethamine, reproducibility", "value": 600, "unit": "nM"}, {"measurement": "IC50", "setting": "[1]; [5]", "value": "400 ± 30", "unit": "nM"}, {"measurement": "inhibition at 20 µM", "setting": "[1]; [4]", "value": 100, "unit": "%"}, {"measurement": "inhibition at 20 µM", "setting": "[1]; 30 h, read-out: inhibition of parasite proliferation as determined by HCI", "value": 25.2, "unit": "%"}, {"measurement": "IC50", "setting": "[1]; 72 h, read-out: IC50 of pyrimethamine, reproducibility", "value": 440, "unit": "nM"}]}
